Test results taken from patent US4946858A, “Novel spirosuccinimides as aldose reductase inhibitors and antihyperglycemic agents” (American Home Products Corporation, priority 1989, dated 1990).
Where two headings read alike, the source gives them in different places.

Tests used:
aldose reductase = target: T1, aldose reductase (Bos taurus, UniProt P16116); assay: In vitro inhibition of aldose reductase (modified Hayman and Kinoshita procedure, enzyme from bovine lens); assay type: biochemical; conditions: read-out: % Inhibition in Vitro; for inhibition at 1 µM: 10^-6 M
T1 construct: preparation of the enzyme from bovine lens; from tissue; host or cells: bovine lens
From the text: In the present case the procedure of Hayman and Kinoshita was modified in that the final chromatography step was omitted in the preparation of the enzyme from bovine lens.

galactosemic rats = assay: Lowering of galactitol (dulcitol) accumulation in tissues of galactosemic rats; assay type: in vivo, rat (Sprague-Dawley); conditions: 4 days, vs untreated galactosemic rats
From the text: The aldose reductase inhibiting property of the compounds of this invention and the utilization of the compounds in preventing, diminishing and alleviating diabetic complications by lowering polyol accumulation were also demonstrable in experiments using galactosemic rats, see Dvornik et al, Science, 182, 1146 (1973). Such experiments are exemplified hereinbelow after the listing of the following general comments pertaining to these experiments:
(a) Four or more groups of six male rats, 50-70 g, Sprague-Dawley strain, were used. The first group, the control group, was fed a mixture of laboratory chow (rodent Laboratory Chow, Purina) and glucose at 20% (w/w %) concentration. The untreated galactosemic group and the drug-treated groups were fed a similar diet in which galactose is substituted for glucose. The test compound was either admixed to the diet or administered by gavage. In experiments involving compound administration in the diet, the average dose administered was calculated from the actual food intake of the animals in each group. The concentration of galactose in the diet of the treated groups was the same as that for the untreated galactosemic groups.
(b) After four days, the amimals were killed by decapitation. The eyeballs were removed and punctured with a razor blade; the freed lenses were rolled gently on filter paper and weighed. The sciatic nerves were dissected as completely as possible and weighed. Both tissues when frozen can be kept up to two weeks before being analyzed for galactitol.
(c) The polyol determination was performed by a modification of the procedure of M. Kraml and L. Cosyns, Clin. Biochem., 2, 373 (1969). Only two minor reagent changes were made: (a) the rinsing mixture was an aqueous 5% (w/v) trichloroacetic acid solution and (b) the stock solution was prepared by dissolving 25 mg of dulcitol in 100 mL of an aqueous trichloroacetic acid solution. [N.B.: For each experiment the average value found in the tissue from rats fed the glucose diet was subtracted from the individual values found in the corresponding tissue in galactose-fed rats to obtain the amount of polyol accumulated.]
The figures under L, N, and D represent the percentage decrease of galactitol accumulation in the tissues of the lens, sciatic nerve, and diaphragm, respectively, for treated rats as compared to untreated rats.

diabetic (db/db) mice = assay: Blood glucose lowering activity in diabetic (db/db) mice; assay type: in vivo, mouse (db/db, C57BL/KsJ); conditions: for change in vivo at 100 mg/kg: Mus musculus, po, 96 h, 100 mg/kg/day p.o. (gavage), read-out: % Change from vehicle (plasma glucose)
From the text: The blood glucose lowering activity of the compounds of this invention were demonstrable in experiments using diabetic (db/db) mice. […] The animals are obese, glucose intolerant and have fasting hyperglycemia which is sometimes accompanied by a paradoxical hyperinsulinemia. Furthermore, the db/db mouse will eventually develop some of the long-term complications that have been associated with diabetes mellitus. [See Coleman Diabetes, 31 (Suppl. 1), 1 (1982)]. In spite of these commonalities, the acute administration of sulfonylureas (even at extremely high dosages) will not reduce the hyperglycemia of the db/db mouse. [See Tutwiler et al, Diabetes 27, 856 (1978)]. […] On the morning of Day 1, 35 mice [male db/db (C57BL/KsJ), Jackson Laboratories, 2 to 7 months of age and body weight 35 to 60 g] were fasted for 4 hours, weighted and a baseline blood sample was collected from the tail-tip of each mouse without anesthesia, placed directly into a fluoride-containing tube, mixed and maintained on ice. Food was then returned to the mice. The plasma was separated and levels of glucose in plasma determined by the Abbott VP Analyzer. Because of the variable plasma glucose levels of the db/db mice, 5 mice having the most extreme (i.e., highest or lowest) plasma glucose levels were excluded and the remaining 30 mice were randomly assigned into […] of equivalent means plasma glucose levels: On the afternoon of Days 1, 2 and 3 the vehicle, control or test drugs were administered (p.o.) to the ad libitum fed mice. […] The test compounds were given by gavage at a dose of 100 mg/kg/day unless otherwise noted in Table 3. On the morning of Day 4, the mice were weighted and fasted, but water was available ad libitum. Three hours later, a blood sample was collected and then the mice were given the fourth administration of drug or vehicle. Blood samples were collected again from the unanesthetized mice at 2 and 4 hours after drug administration. The plasma was separated and levels of glucose in plasma determined by the Abbott VP Analyzer. For each mouse, the percent change of it's plasma glucose level on Day 4 (mean of the 2 and 4 hour samples) from it's respective level before drug administration (Day 1 baseline sample) was determined as follows: [formula] Analysis of variance followed by Dunnett's multiple comparison (one-sided) was used to estimate the degree of statistical significance of the difference between the vehicle group and the individual drug-treated groups. A drug was considered active, at the specific dosage administered,if the difference of the plasma glucose level has a p<0.05.

[1] = tested on: hyperglycemia and hyperinsulinemia; conditions: Fujita et al, Diabetes, 32, 804 (1983); cited from earlier work
[2] = Day 4 mean of 2 and 4 hour samples vs Day 1 baseline, difference from vehicle

SMILES: O=C1CC2(C(=O)N1)c1ccccc1S(=O)(=O)N2Cc1ccc(Br)cc1F (centres unmarked) [Example 104, 2-[(4-bromo-2-fluorophenyl)methyl]-2,3-dihydrospiro[1,2-benzisothiazole-3,3'-pyrrolidine]-2',5'-dione 1,1-dioxide]
- inhibition at 10 µM (aldose reductase; 10^-5 M): 52%
- inhibition at 1 µM (aldose reductase): 3%
- % Lowering of dulcitol accumulation In Vivo, % L (lens) (galactosemic rats; 104 mg/kg): 13%
- comparison with ciglitazone, blood glucose lowering (diabetic (db/db) mice; 100 mg/kg, db/db mice): gives comparable results to ciglitazone at 100 mg/kg
- change in vivo at 100 mg/kg (diabetic (db/db) mice; [2]): -48%

SMILES: O=C1CC2(C(=O)N1)c1ccccc1C(=O)N2Cc1ccccc1 (centres unmarked) [Example 114]
- change in vivo at 100 mg/kg (diabetic (db/db) mice; [2]): -22%

SMILES: O=C1CC2(C(=O)N1)c1ccccc1S(=O)(=O)N2Cc1c(F)cccc1Cl (centres unmarked) [Example 110]
- change in vivo at 100 mg/kg (diabetic (db/db) mice; [2]): -17%

SMILES: CC(C)N1C2(CC(=O)NC2=O)c2ccccc2S1(=O)=O (centres unmarked) [Example 111]
- % Change from vehicle (plasma glucose) (diabetic (db/db) mice; 87 mg/kg/day p.o. (gavage), Day 4 mean of 2 and 4 hour samples vs Day 1 baseline, difference from vehicle): -27%

SMILES: CN1C(=O)c2cc(Cl)c(Cl)cc2C12CC(=O)NC2=O (centres unmarked) [Example 122, 5,6-dichloro-2-methylspiro[1H-isoindole-1,3'-pyrrolidine]-2',3,5'(2H)-trione]
- inhibition at 1 µM (aldose reductase): 83%
- inhibition at 10 µM (aldose reductase): 94%
- % Lowering of dulcitol accumulation In Vivo, % D (diaphragm) (galactosemic rats; 3 mg/kg): 25%
- % Lowering of dulcitol accumulation In Vivo, % N (sciatic nerve) (galactosemic rats; 3 mg/kg): 20%
- % Lowering of dulcitol accumulation In Vivo, % D (diaphragm) (galactosemic rats; 50 mg/kg): 90%
- % Lowering of dulcitol accumulation In Vivo, % L (lens) (galactosemic rats; 50 mg/kg): 71%
- % Lowering of dulcitol accumulation In Vivo, % N (sciatic nerve) (galactosemic rats; 50 mg/kg): 94%
- change in vivo at 100 mg/kg (diabetic (db/db) mice; [2]): -31%

SMILES: O=C1CC2(C(=O)N1)c1ccccc1S(=O)(=O)N2Cc1ccc(Cl)c(Cl)c1 (centres unmarked) [Example 105]
- inhibition at 10 µM (aldose reductase; 10^-5 M): 63%
- inhibition at 1 µM (aldose reductase): 16%
- change in vivo at 100 mg/kg (diabetic (db/db) mice; [2]): -27%

SMILES: CC1(COc2ccc(CC3SC(=O)NC3=O)cc2)CCCCC1 (racemic) [Ciglitazone, (±)-5-[4-[(1-methylcyclohexyl)methoxy]benzyl]-thiazolidine-2,4-dione, reference compound]
- effect on hyperglycemia and hyperinsulinemia [1]: normalizes these parameters
- change in vivo at 100 mg/kg (diabetic (db/db) mice; [2]): -33%

SMILES: O=C1CC2(C(=O)N1)c1ccccc1C(=O)N2Cc1ccc(Cl)c(Cl)c1 (centres unmarked) [Example 115]
- inhibition at 10 µM (aldose reductase; 10^-5 M): 82%
- inhibition at 1 µM (aldose reductase): 45%
- change in vivo at 100 mg/kg (diabetic (db/db) mice; [2]): -21%

SMILES: O=C1CC2(C(=O)N1)c1ccccc1C(=O)N2Cc1ccc(Br)cc1F (centres unmarked) [Example 116, 2-[(4-bromo-2-fluorophenyl)methyl]spiro[1H-isoindole-1,3'pyrrolidine]-2',3,5'(2H)-trione]
- inhibition at 10 µM (aldose reductase; 10^-5 M): 84%
- inhibition at 1 µM (aldose reductase): 54%
- % Lowering of dulcitol accumulation In Vivo, % D (diaphragm) (galactosemic rats; 101 mg/kg): 30%
- change in vivo at 100 mg/kg (diabetic (db/db) mice; [2]): -36%

SMILES: O=C1CC2(C(=O)N1)c1ccccc1S(=O)(=O)N2Cc1ccc(Br)cc1 (centres unmarked) [Example 106, 2-[(4-bromophenyl)methyl]-2,3-dihydrospiro[1,2-benzisothiazole-3,3'-pyrrol-idine]-2',5'-dione 1,1-dioxide]
- change in vivo at 100 mg/kg (diabetic (db/db) mice; [2]): -37%
